Laboratory results taken from patent US8481526B2, “Fluoroquinolone carboxylic acid molecular crystals” (Bausch & Lomb Incorporated, priority 2009, dated 2013).
≈ marks a conversion by molar mass, not a printed value. Counter-ions that a name gives are not always drawn. Like-named read-outs stand apart in the source and are kept apart here. One block for each compound: values may come before it.

Legend:
Assay type in all cases: physicochemical
[1] = Equilibrium solubility in various solvents (HPLC); settings: Water, 22° C. ± 2° C.; for solubility: saturated solution pH 3.6 (HCl salt), 8.1 (free base), solubility of free base
Experimental: (§1) A reversed phase gradient HPLC method was used for the analysis of besifloxacin solubility samples. The conditions are listed below:
The solubility of besifloxacin HCl was evaluated in several organic solvents. An excess of drug substance was equilibrated with 10 mL of each solvent for 24-48 hours at room temperature (24±3° C.) using either a small magnetic stirrer or a Burrell Wrist Action shaker. Samples were inspected visually, and if needed, more drug substance was added until excess solid persisted after stirring. The samples were then filtered through 0.45 μm Nylon or PVDF filters or centrifuged at 10,000 RPM for 15 minutes. The filtrate or the supernatant was diluted as needed using the HPLC diluent and analyzed by HPLC. When solubility was greater than 100 mg/mL, no attempt was made to determine the equilibrium solubility and the compound was described as “freely soluble” as per the USP definition.
(§2) The solubility of besifloxacin HCl, lot 050956330, was determined in distilled water as a function of pH by adjusting the pH with 1 N NaOH. Suspensions of the drug substance (about 50-150 mg in 10 mL distilled water) were equilibrated for 72-96 hours using a Burrell shaker. Laboratory temperature was 22±2° C. The pH of the suspensions was measured in the presence of excess solid prior to sampling. The samples were centrifuged in an Enprotech ISS-I13 centrifuge at 10,000 RPM for 15 minutes or filtered through 0.45[…] or PVDF filters. When samples were filtered, a volume of filtrate was discarded to allow saturation of filters. The supernatant or the filtrate was diluted as needed using the HPLC diluent prior to analysis. Sample concentration was monitored at varying time intervals to ensure complete equilibration. Also, sample concentration was reported as besifloxacin free base concentration rather than HCl salt.

[2] = pH-dependence of solubility in distilled water (HPLC); settings: for solubility: distilled water, aqueous buffer, thermodynamic from solid
Experimental: as §1, §2

[3] = Moisture sorption analysis (VTI moisture sorption balance); settings: 25° C.; for Hygroscopicity / moisture sorption behaviour: 10% to 90% RH
Experimental: Moisture uptake and loss was monitored as a function of relative humidity using a VTI, moisture sorption balance. A 30-40 mg sample was loaded into a tared glass sample holder. The initial weight of the sample was accurately recorded. The sample was then dried under a steady stream of nitrogen for 2 hours at 40° C. After initial drying, the sample mass was equilibrated with dry nitrogen at 25° C. and the sample was exposed to progressive stepwise increases in humidity under controlled conditions. The sample was equilibrated for two hours at each new relative humidity. The moisture sorption behavior was monitored at 10% to 90% RH in 10% RH intervals and desorption was monitored from 90% to 10% RH. The % moisture gain/loss was recorded vs. the % RH.

[4] = XRPD of excess solids isolated from equilibrated solubility samples (form conversion); settings: for Form conversion in aqueous media: pH>4
Experimental: Approximately 20-100 mg of powder was loaded onto a low background sample holder. Samples were analyzed on a Rigaku Miniflex (scanning configuration) and scanned from 5-60°, 2-theta at a rate of 1°2θ/minute with a sampling rate of 0.02 seconds. Patterns were analyzed using Jade software version 7.5, provided by Materials Data Inc.
Excess solids were isolated from equilibrated samples and analyzed by XRPD. […] As discussed below (XRPD section), this phase was identified as the crystalline besifloxacin free base.

[5] = Equilibrium solubility in various solvents (HPLC); settings: 22° C. ± 2° C.; for solubility: solubility of free base
[6] = pKa and intrinsic solubility from fit of pH-solubility profile to Henderson-Hasselbach equation; settings: for solubility: aqueous buffer; for pKa: estimated from fit of pH-solubility profile
From the text: To determine pKas that were consistent with observed solubility behavior, the pH dependent solubility was fitted to the following expression: S=So*(10^pKa1-pH+10^pH-pKa2+1) where S=solubility So=intrinsic solubility (total of zwitterionic and neutral species) pKa1=dissociation constant for the carboxylic acid moiety pKa2=dissociation constant for the primary ammonium ion moiety

[7] = Acetonitrile, listed as Free base
[8] = Isopropanol, listed as Free base

- USP def ([1]; listed as Besifloxacin HCL salt): sparingly soluble
- USP def ([1]; listed as Besifloxacin HCl salt): sparingly soluble
- solubility [1]: 10635 µg/mL
- solubility ([2]; pH 3.54, water, 22° C. ± 2° C., reported as free base concentration, read-out: Solubility): 10600 µg/mL
- solubility ([2]; pH 3.58, water, 22° C. ± 2° C., reported as free base concentration, read-out: Solubility): 10200 µg/mL
- solubility ([2]; pH 3.72, water, 22° C. ± 2° C., reported as free base concentration, read-out: Solubility): 10300 µg/mL
- solubility ([2]; pH 3.95, water, 22° C. ± 2° C., reported as free base concentration, read-out: Solubility): 4180 µg/mL
- solubility ([2]; pH 4.58, water, 22° C. ± 2° C., reported as free base concentration, read-out: Solubility): 710 µg/mL
- solubility ([2]; pH 4.87, water, 22° C. ± 2° C., reported as free base concentration, read-out: Solubility): 590 µg/mL
- solubility ([2]; pH 5.15, water, 22° C. ± 2° C., reported as free base concentration, read-out: Solubility): 240 µg/mL
- solubility ([2]; pH 5.17, water, 22° C. ± 2° C., reported as free base concentration, read-out: Solubility): 270 µg/mL
- solubility ([2]; pH 5.43, water, 22° C. ± 2° C., reported as free base concentration, read-out: Solubility): 220 µg/mL
- solubility ([2]; pH 5.95, water, 22° C. ± 2° C., reported as free base concentration, read-out: Solubility): 120 µg/mL
- solubility ([2]; pH 6.31, water, 22° C. ± 2° C., reported as free base concentration, read-out: Solubility): 100 µg/mL
- solubility ([2]; pH 6.45, water, 22° C. ± 2° C., reported as free base concentration, read-out: Solubility): 100 µg/mL
- solubility ([2]; pH 6.49, water, 22° C. ± 2° C., reported as free base concentration, read-out: Solubility): 80 µg/mL
- solubility ([2]; pH 6.72, water, 22° C. ± 2° C., reported as free base concentration, read-out: Solubility): 80 µg/mL
- solubility ([2]; pH 8.14, water, 22° C. ± 2° C., reported as free base concentration, read-out: Solubility): 80 µg/mL
- solubility ([2]; pH 9.11, water, 22° C. ± 2° C., reported as free base concentration, read-out: Solubility): 80 µg/mL
- solubility ([2]; pH 9.59, water, 22° C. ± 2° C., reported as free base concentration, read-out: Solubility): 100 µg/mL
- solubility ([2]; pH 9.63, water, 22° C. ± 2° C., reported as free base concentration, read-out: Solubility): 100 µg/mL
- solubility ([2]; pH 10.37, water, 22° C. ± 2° C., reported as free base concentration, read-out: Solubility): 270 µg/mL
- solubility ([2]; pH 10.85, water, 22° C. ± 2° C., reported as free base concentration, read-out: Solubility): 850 µg/mL
- Hygroscopicity / moisture sorption behaviour ([3]; listed as Besifloxacin HCl): not hygroscopic
- Form conversion of excess solid ([4]; equilibrated in organic solvents): no form conversions were observed
- USP def ([5]; Acetonitrile): Insoluble
- USP def ([5]; Acetonitrile, listed as Besifloxacin HCL salt): insoluble
- USP def ([5]; Acetonitrile, listed as Besifloxacin HCl salt): insoluble
- solubility ([5]; Acetonitrile): 12 µg/mL
- USP def ([5]; Ethanol): slightly soluble
- USP def ([5]; Ethanol, listed as Besifloxacin HCL salt): slightly soluble
- USP def ([5]; Ethanol, listed as Besifloxacin HCl salt): slightly soluble
- solubility ([5]; Ethanol): 1122 µg/mL
- USP def ([5]; Isopropanol): Insoluble
- USP def ([5]; Isopropanol, listed as Besifloxacin HCL salt): insoluble
- USP def ([5]; Isopropanol, listed as Besifloxacin HCl salt): insoluble
- solubility ([5]; Isopropanol): 89 µg/mL
- USP def ([5]; Methanol): slightly soluble
- USP def ([5]; Methanol, listed as Besifloxacin HCL salt): slightly soluble
- USP def ([5]; Methanol, listed as Besifloxacin HCl salt): slightly soluble
- solubility ([5]; Methanol): 9898 µg/mL
- USP def ([5]; Water): sparingly
Structure (SMILES): N[C@@H]1CCCCN(c2c(F)cc3c(=O)c(C(=O)O)cn(C4CC4)c3c2Cl)C1 [besifloxacin HCl salt]
- Form conversion in aqueous media [4]: dissolve and precipitate in a different crystalline form
- Form conversion in aqueous media ([4]; listed as besifloxacin HCl): convert in aqueous media (pH>4) to a new crystalline phase
- Form conversion of excess solid ([4]; aqueous pH solubility samples, pHs>3.5-4.0): converted to a different crystalline phase

- USP def ([1]; listed as Free base): Insoluble
- solubility ([1]; listed as Free base): 79 µg/mL
- solubility ([2]; 22 °C, pH 6.5 (product pH), read-out: Solubility in aqueous media): ~100 µg/mL (≈ 254 µM)
- Hygroscopicity / moisture sorption behaviour ([3]; listed as Besifloxacin free base): sorbed moisture at all RH conditions
- Moisture sorbed ([3]; 90% RH): up to 5 % w/w
- USP def [5, 7]: Insoluble
- solubility [5, 7]: 5 µg/mL (≈ 12.7 µM)
- USP def ([5]; Ethanol, listed as Free base): Insoluble
- solubility ([5]; Ethanol, listed as Free base): 33 µg/mL (≈ 83.8 µM)
- USP def [5, 8]: Insoluble
- solubility [5, 8]: 4 µg/mL (≈ 10.2 µM)
- USP def ([5]; Methanol, listed as Free base): Very slightly
- solubility ([5]; Methanol, listed as Free base): 135 µg/mL (≈ 343 µM)
Structure (SMILES): N[C@@H]1CCCCN(c2c(F)cc3c(=O)c(C(=O)O)cn(C4CC4)c3c2Cl)C1 [besifloxacin free base, (R)-(+)-7-(3-amino-2,3,4,5,6,7-hexahydro-1H-azepin-1-yl)-1-cyclopropyl-8-chloro-6-fluoro-1,4-dihydro-4-oxoquinoline-3-carboxylic acid]

- Solubility description of the zwitterion ([2]; aqueous, pH 5.5-9.0): very slightly soluble
- Solubility of the zwitterion ([2]; aqueous, pH range 5.5-9.0): ~100 µg/mL
- solubility ([2]; 22 °C, aqueous, pH 3, read-out: Maximum solubility as a function of pH): ~10000 µg/mL (≈ 25400 µM)
- solubility ([2]; 22 °C, aqueous, pH range 5.5-9.0, read-out: Solubility of the zwitterion): ~100 µg/mL (≈ 254 µM)
- solubility ([6]; distilled water (pH adjusted with 1 N NaOH), assumed in fit of pH-solubility profile, read-out: Intrinsic solubility): 74 µg/mL (≈ 188 µM)
- solubility ([6]; distilled water, pH adjusted with 1 N NaOH, fit of pH-solubility profile, total of zwitterionic and neutral species, read-out: Intrinsic solubility (So)): 74 µg/mL (≈ 188 µM)
- pKa ([6]; read-out: pKa of the carboxylic acid group (pKa1)): 5.65
- pKa ([6]; read-out: pKa of the primary amine (ammonium) group (pKa2)): 9.91
Structure (SMILES): N[C@@H]1CCCCN(c2c(F)cc3c(=O)c(C(=O)O)cn(C4CC4)c3c2Cl)C1 [besifloxacin, (R)-(+)-7-(3-amino-2,3,4,5,6,7-hexahydro-1H-azepin-1-yl)-1-cyclopropyl-8-chloro-6-fluoro-1,4-dihydro-4-oxoquinoline-3-carboxylic acid]
